Measurements from patent publication US10765114B2, “4-amino-6-(pyridyl and 2-substitutedphenyl)-picolinates and 6-amino-2-(pyridyl and 2-substitutedphenyl)-pyrimidine-4-carboxylates and their use as herbicides” (Dow AgroSciences LLC, priority 2013, dated 2020).
Where two headings read alike, the source gives them in different places.

Key:
[1] = system: Key Broadleaf Weed and Crop Species; assay: Post-Emergent Test II (Table 5); type: in vivo; details: post-emergence, 336 h; for pest or weed control at 70 g/ha: application rate 70 (kg ai/ha; footnote: g ai/ha); for pest or weed control at 140 g/ha: application rate 140 (kg ai/ha; footnote: g ai/ha)
Method in brief: (§1)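 Seedlings are raised 7-21 days in Metro-Mix 360 (pH 6.0-6.8) under greenhouse conditions, then sprayed at the first or second true leaf stage. Application is 187 L/ha, with serial rates down to 1/16× of the highest. Plants are subirrigated, and percent injury is rated visually after 14 days.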

[2] = system: Key Grass and Sedge Weeds as well as Grass Crops; assay: Post-Emergent Test II (Table 6); type: in vivo; details: post-emergence, 336 h, 14 days after application; for pest or weed control at 70 g/ha: 70 g ai/ha; for pest or weed control at 140 g/ha: 140 g ai/ha
Method in brief: as §1

[3] = Abutilon theophrasti, ABUTH: velvetleaf (Abutilon theophrasti), read-out: Visual Growth Reduction (%) 14 Days After Application ABUTH
[4] = Amaranthus retroflexus, AMARE: redroot pigweed (Amaranthus retroflexus), read-out: Visual Growth Reduction (%) 14 Days After Application AMARE
[5] = Brassica napus, BRSSS: oilseed rape, canola (Brassica napus), read-out: Visual Growth Reduction (%) 14 Days After Application BRSSS
[6] = Chenopodium album, CHEAL: lambsquarters (Chenopodium album), read-out: Visual Growth Reduction (%) 14 Days After Application CHEAL
[7] = Euphorbia heterophylla, EPHHL: wild poinsettia (Euphorbia heterophylla), read-out: Visual Growth Reduction (%) 14 Days After Application EPHHL
[8] = Helianthus annuus, HELAN: sunflower (Helianthus annuus), read-out: Visual Growth Reduction (%) 14 Days After Application HELAN
[9] = Viola tricolor, VIOTR: wild pansy (Viola tricolor), read-out: Visual Growth Reduction (%) 14 Days After Application VIOTR
[10] = CYPSS, read-out: Visual Growth Reduction (%) 14 Days After Application CYPSS
[11] = DIGSA: crabgrass (Digitaria sanguinalis), read-out: Visual Growth Reduction (%) 14 Days After Application DIGSA
[12] = ECHSS, read-out: Visual Growth Reduction (%) 14 Days After Application ECHSS
[13] = ORYSS (crop), read-out: Visual Growth Reduction (%) 14 Days After Application ORYSS
[14] = SETFA: giant foxtail (Setaria faberi), read-out: Visual Growth Reduction (%) 14 Days After Application SETFA
[15] = SORVU: grain sorghum (Sorghum vulgare), read-out: Visual Growth Reduction (%) 14 Days After Application SORVU
[16] = TRZSS (crop), read-out: Visual Growth Reduction (%) 14 Days After Application TRZSS
[17] = ZEAMX: maize, corn (Zea mays), read-out: Visual Growth Reduction (%) 14 Days After Application ZEAMX

Compound | pest or weed control at 70 g/ha [1, 3] [%] | pest or weed control at 140 g/ha [1, 3] [%] | pest or weed control at 70 g/ha [1, 4] [%] | pest or weed control at 140 g/ha [1, 4] [%] | pest or weed control at 70 g/ha [1, 5] [%] | pest or weed control at 140 g/ha [1, 5] [%] | pest or weed control at 70 g/ha [1, 6] [%] | pest or weed control at 140 g/ha [1, 6] [%] | pest or weed control at 70 g/ha [1, 7] [%] | pest or weed control at 70 g/ha [1, 8] [%] | pest or weed control at 140 g/ha [1, 8] [%] | pest or weed control at 70 g/ha [1, 9] [%] | pest or weed control at 140 g/ha [1, 9] [%] | pest or weed control at 70 g/ha [2, 10] [%] | pest or weed control at 140 g/ha [2, 10] [%] | pest or weed control at 70 g/ha [2, 11] [%] | pest or weed control at 140 g/ha [2, 11] [%] | pest or weed control at 70 g/ha [2, 12] [%] | pest or weed control at 140 g/ha [2, 12] [%] | pest or weed control at 70 g/ha [2, 13] [%] | also measured
COC(=O)c1nc(-c2ccc(Br)nc2)c(F)c(N)c1Cl [Compound 22, methyl 4-amino-6′-bromo-5-chloro-3-fluoro-[2,3′-bipyridine]-6-carboxylate] | 95 to 100 | 95 to 100 | 95 to 100 | 95 to 100 | 95 to 100 | 95 to 100 | 95 to 100 | 95 to 100 | 95 to 100 | 85 to 94 | 95 to 100 | 95 to 100 | 95 to 100 | 95 to 100 | 95 to 100 | 85 to 94 | 85 to 94 | 85 to 94 | 95 to 100 | 30 to 44 | pest or weed control at 140 g/ha [1, 7]: 95 to 100%; pest or weed control at 140 g/ha [2, 13]: 0 to 29%; pest or weed control at 70 g/ha [2, 14]: 85 to 94%; pest or weed control at 140 g/ha [2, 14]: 85 to 94%; pest or weed control at 70 g/ha [2, 15]: 95 to 100%; pest or weed control at 140 g/ha [2, 15]: 95 to 100%; pest or weed control at 70 g/ha [2, 16]: 85 to 94%; pest or weed control at 140 g/ha [2, 16]: 95 to 100%; pest or weed control at 70 g/ha [2, 17]: 85 to 94%; pest or weed control at 140 g/ha [2, 17]: 95 to 100%
C=Cc1c(-c2cc(N)c(Cl)c(C(=O)OC)n2)ccc(Cl)c1F [Compound 79, methyl 4-amino-3-chloro-6-(4-chloro-3-fluoro-2-vinylphenyl)picolinate] | 95 to 100 | 0 to 29 | 95 to 100 | 95 to 100 | 95 to 100 | 95 to 100 | 95 to 100 | 95 to 100 | 0 to 29 | 85 to 94 | 85 to 94 | 0 to 29 | 0 to 29 | 95 to 100 | 95 to 100 | 0 to 29 | 0 to 29 | 0 to 29 | 0 to 29 | 0 to 29 | pest or weed control at 140 g/ha [1, 7]: 0 to 29%; pest or weed control at 140 g/ha [2, 13]: 0 to 29%; pest or weed control at 70 g/ha [2, 14]: 0 to 29%; pest or weed control at 140 g/ha [2, 14]: 0 to 29%; pest or weed control at 70 g/ha [2, 15]: 0 to 29%; pest or weed control at 140 g/ha [2, 15]: 30 to 44%; pest or weed control at 70 g/ha [2, 16]: 0 to 29%; pest or weed control at 140 g/ha [2, 16]: 0 to 29%; pest or weed control at 70 g/ha [2, 17]: 0 to 29%; pest or weed control at 140 g/ha [2, 17]: 0 to 29%
COC(=O)c1nc(-c2ccc(C(F)(F)F)c(F)c2C)cc(N)c1Cl [Compound 9, methyl 4-amino-3-chloro-6-(3-fluoro-2-methyl-4-(trifluoromethyl)phenyl)picolinate] | 85 to 94 | 85 to 94 | 0 to 29 | 0 to 29 | 0 to 29 | 0 to 29 | 85 to 94 | 95 to 100 | 95 to 100 | 0 to 29 | 85 to 94 | 0 to 29 | 0 to 29 | 95 to 100 | 95 to 100 | 0 to 29 | 0 to 29 | 0 to 29 | 0 to 29 | 0 to 29 | pest or weed control at 140 g/ha [2, 13]: 0 to 29%; pest or weed control at 70 g/ha [2, 15]: 0 to 29%; pest or weed control at 140 g/ha [2, 15]: 30 to 44%; pest or weed control at 70 g/ha [2, 16]: 0 to 29%; pest or weed control at 140 g/ha [2, 16]: 0 to 29%; pest or weed control at 70 g/ha [2, 17]: 0 to 29%; pest or weed control at 140 g/ha [2, 17]: 30 to 44%
COC(=O)c1nc(-c2ccc(Cl)c(F)c2CF)cc(N)c1Cl [Compound 78, methyl 4-amino-3-chloro-6-(4-chloro-3-fluoro-2-(fluoromethyl)phenyl)picolinate] | 95 to 100 | 95 to 100 | 95 to 100 | 95 to 100 | 95 to 100 | 95 to 100 | 95 to 100 | 95 to 100 | 0 to 29 | 85 to 94 | 85 to 94 | 0 to 29 | 0 to 29 | 45 to 59 | 45 to 59 | 0 to 29 | 0 to 29 | 0 to 29 | 0 to 29 | 0 to 29 | pest or weed control at 140 g/ha [1, 7]: 0 to 29%; pest or weed control at 140 g/ha [2, 13]: 0 to 29%; pest or weed control at 70 g/ha [2, 14]: 0 to 29%; pest or weed control at 140 g/ha [2, 14]: 0 to 29%; pest or weed control at 70 g/ha [2, 15]: 0 to 29%; pest or weed control at 140 g/ha [2, 15]: 0 to 29%; pest or weed control at 70 g/ha [2, 16]: 0 to 29%; pest or weed control at 140 g/ha [2, 16]: 0 to 29%; pest or weed control at 70 g/ha [2, 17]: 0 to 29%; pest or weed control at 140 g/ha [2, 17]: 0 to 29%
